Test results as given in ChEMBL document CHEMBL1156829 (Proc Natl Acad Sci U S A, 2008).

Experiments:
[1] = NOVARTIS: Cytotoxicity against human hepatocellular carcinoma cell line (Huh7); format: toxicity, cell-based, Huh-7; conditions: Huh7 cells (hepatocellular carcinoma cell line)
Plasmodium falciparum [2] = assay: NOVARTIS: Inhibition of Plasmodium falciparum W2 (drug-resistant) proliferation in erythrocyte-based infection assay; format: functional, organism-based; conditions: Plasmodium falciparum, W2; read-out: EC50
Plasmodium falciparum [3] = assay: NOVARTIS: Inhibition of Plasmodium falciparum 3D7 (drug-susceptible) proliferation in erythrocyte-based infection assay; format: functional, organism-based; conditions: Plasmodium falciparum, 3D7

Compound	CC50 [1]	EC50 (Plasmodium falciparum [2])	EC50 (Plasmodium falciparum [3])
O=C(Nc1cc(C(F)(F)F)cc(C(F)(F)F)c1)Nc1ccc(Cl)c(Cl)c1	6570 nM	927 nM	814 nM
Ic1nc2ccccc2s1	> 10000 nM	1350 nM	> 295 nM
O=C(O)CSc1nc2c(ccc3nsnc32)[nH]1	> 10000 nM	> 1440 nM	> 964 nM
CCN1CCN(C/C=C/c2ccccc2[N+](=O)[O-])CC1	> 10000 nM	1410 nM	> 1250 nM
C[N+](C)(C)c1ccc2cc(Br)c3ccccc3c2c1	> 10000 nM	1370 nM	759 nM
CCOC(=O)c1c(Cl)nnc(-c2ccccc2)c1-c1ccccc1	> 10000 nM	> 1440 nM	797 nM
COCOc1ccc(-c2nc(-c3ccncc3)cnc2N)cc1	> 10000 nM	> 1440 nM	1430 nM
COc1ccc(Nc2nc(NCc3ccco3)c3ccccc3n2)cc1	2970 nM	421 nM	253 nM
Cc1nc([P+](c2ccccc2)(c2ccccc2)c2ccccc2)c(N2CCCCC2)o1	7120 nM	967 nM	761 nM
COc1ccc(CCNc2nc(NCCCN3CCCC3)ncc2C(=O)NCC(C)C)cc1OC	> 10000 nM	> 1350 nM	809 nM
O=C(c1nccs1)C1CCN(C(=O)c2cscn2)CC1	> 10000 nM	1390 nM	> 1250 nM
Cc1ccc(CN2C(=O)C(O)(CC(=O)c3ccccc3)c3ccccc32)cc1 (stereo not given)	> 64500 nM	8960 nM	7010 nM
Cc1ccccc1Cn1cc(NC(=O)c2cc(-c3cccs3)on2)cn1	> 10000 nM	1420 nM	> 1250 nM
Cc1cc(S(=O)(=O)N2CCN(Cc3ccccc3)CC2)ccc1-n1cnnn1	> 10000 nM	1410 nM	732 nM
CCOc1ccc2nc(C)cc(Nc3ccc(OC)cc3)c2c1	8350 nM	1150 nM	419 nM
O=C(CCCn1c(SCc2ccccc2F)nc2ccccc2c1=O)N1CCCC1	> 10000 nM	> 1440 nM	1060 nM
CCCCCCN(C(=O)c1ccc2c(c1)OCO2)C(CC)c1nc2ccccc2c(=O)n1-c1ccccc1OC (stereo not given)	> 4510 nM	647 nM	862 nM
CC(C)CNC(=O)c1cnc(NCCCN2CCCC2)nc1NCC1CCCCC1	> 10000 nM	> 1350 nM	474 nM
CCN1C(=O)N(CC(N)=O)C(=O)C12CCN(Cc1ccc(N(C)c3ccccc3)cc1)CC2	57800 nM	7790 nM	> 12500 nM
Cc1cc(C)c(S(=O)(=O)NCc2ccc(Cl)cc2)c(C)c1	48900 nM	6590 nM	> 12500 nM
COc1cc(NC(C)CCCN(Cc2ccc(Cl)cc2)C(=O)Nc2ccc(Br)cc2)c2ncccc2c1 (stereo not given)	> 5600 nM	788 nM	> 1250 nM
CCCCCN(C(=O)COc1ccc(Cl)cc1)C(CC)c1nc2ccccc2c(=O)n1-c1cccc(Cl)c1 (stereo not given)	> 10000 nM	> 1380 nM	1420 nM
O=C(Cc1ccc(Cl)cc1)NNS(=O)(=O)c1ccc([N+](=O)[O-])cc1	> 10000 nM	> 1370 nM	> 893 nM
Cc1cccc(CSc2nnc(C(Cc3ccccc3)NC(=O)C3CCCCC3)n2-c2ccc(Cl)cc2Cl)c1 (stereo not given)	> 10000 nM	1430 nM	1240 nM
CCNC(=O)N1CCN(CCN(C/C=C/c2ccccc2OC)C(=O)CC(C)CC(C)(C)C)CC1 (stereo not given)	> 10000 nM	1430 nM	> 1250 nM
Cc1ccccc1/C=C1/SC(=Nc2ccccc2)NC1=O	> 10000 nM	> 1420 nM	> 528 nM
O=C(NCC1CCCO1)c1cnc(N2CCN(c3ncccn3)CC2)c2ccccc12 (stereo not given)	> 10000 nM	> 1400 nM	> 637 nM
CC(=O)Nc1ccc(S(=O)(=O)Nc2ccccc2[N+](=O)[O-])cc1	> 10000 nM	1400 nM	677 nM

Compound	CC50 [1]	EC50 (Plasmodium falciparum [2])	EC50 (Plasmodium falciparum [3])
CCC(=O)N1CCOc2c(cc(-c3csc4ccccc34)cc2OCCc2ccccn2)C1	> 10000 nM	1350 nM	> 1620 nM
CCOC(=O)c1[nH]nc(C(=O)c2ccccc2)c1-c1ccccc1	> 10000 nM	> 1350 nM	> 393 nM
CCN1/C(=C/c2sc3ccc(-c4ccccc4)cc3[n+]2CCO)C=Cc2ccccc21	> 10000 nM	1340 nM	955 nM
O=c1c2c3c(sc2ncn1CCCc1ccccc1)CC(N1CCC(N2CCCCC2)CC1)CC3 (stereo not given)	14800 nM	2020 nM	386 nM
O=C(O)CSC(C(=O)Nc1ccc(Cl)cc1)c1ccccc1 (stereo not given)	> 10000 nM	> 1360 nM	> 1620 nM
CCNc1nc(NC(C)C)nc(NC(N)NOC)n1 (stereo not given)	> 10000 nM	> 1400 nM	> 1150 nM
Cc1noc(C)c1C(=O)N1CCC(O)(c2ccccn2)CC1	> 10000 nM	> 1400 nM	> 563 nM
C1=C(c2ccc(CN3CCCCC3)cc2)N2CCN=C2c2ccccc21	4140 nM	579 nM	278 nM
COc1ccc(CN(CC2CCN(C(=O)c3ccccc3Cl)CC2)C(=O)c2ccc(Cl)cc2Cl)cc1	24300 nM	3310 nM	7250 nM
Cc1ccc(C)c(Nc2nc(NCc3ccco3)c3ccccc3n2)c1	5940 nM	844 nM	298 nM
CC(=O)N1CC(=NNC(=O)C(C)Nc2c(C)cccc2C)c2ccccc21 (stereo not given)	> 10000 nM	1420 nM	1960 nM
O=C(NCCCN1CCCC1=O)C(=O)NCC(c1ccco1)N1CCOCC1 (stereo not given)	> 10000 nM	1350 nM	> 1250 nM
c1ccc2cc3c(NCCCN4CCOCC4)ccnc3cc2c1	598 nM	83.5 nM	44.3 nM
CCOP1(=O)COc2ccccc2OC1	> 10000 nM	> 1380 nM	> 1140 nM
Oc1ccc(-c2ccc(F)cc2)cc1CNCCCn1ccnc1	> 10000 nM	1430 nM	1060 nM
CC[n+]1c(/C=C/C=C2\N(C)c3ccccc3C2(C)C)n(-c2ccccc2)c2ccc(C)cc21	> 10000 nM	1400 nM	1530 nM
Cc1ccc(N2C(=O)C3C(C2=O)C2(c4ccccc4)C(=O)C3(c3ccccc3)C(c3ccccc3)=C2c2ccccc2)cc1Br (stereo not given)	> 10000 nM	1410 nM	1440 nM
O=C(O)c1ccc([C@@H]2Nc3c(ccc4ccccc34)[C@@H]3C=CC[C@@H]32)cc1	> 10000 nM	1340 nM	> 1250 nM
COc1ccccc1CNC(=O)CN1C(=O)c2cccnc2Oc2ccccc21	> 10000 nM	1350 nM	> 586 nM
Cc1ccc2nc(Cl)c3cc(C(=O)NCCN4CCN(C)CC4)sc3c2c1	85900 nM	11700 nM	7770 nM
O=[N+]([O-])c1ccc(N2CCN(c3nc(NCCc4c[nH]c5ccccc45)c4ccccc4n3)CC2)cc1	14300 nM	1980 nM	171 nM
CCOC(=O)c1c(NC(=O)CSc2nnc(CNC(=O)c3ccc(C)c(C)c3)n2C2CCCCC2)sc2c1CCC2	> 10000 nM	> 1400 nM	> 1090 nM
CN1c2ccccc2N(C)C1c1ccc2c(c1)OCO2	> 10000 nM	> 1410 nM	1120 nM
Cc1c(Cl)cccc1NC(=O)C1C(C(=O)O)C2C=CC1C21CC1 (stereo not given)	> 10000 nM	1400 nM	1250 nM
CN1CCCC1CCNc1ncc(C(=O)NCCc2ccccc2)c(NCC2CCCCC2)n1 (stereo not given)	> 10000 nM	1340 nM	598 nM
N#CC(=Cc1ccccc1OCc1ccc(Cl)cc1Cl)c1nc2ccccc2[nH]1	5050 nM	717 nM	1130 nM
COCCN1Cc2cccc(C(=O)Nc3ccc4c(c3)OCCO4)c2C1=O	> 10000 nM	1390 nM	> 1450 nM
